The structures appear in SMILES notation.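 Method: 48-hour compound exposure of cells in 96-well plates, five concentrations, linear interpolation of endpoints. Definition used: TGI = concentration required for complete inhibition of growth.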

Test systems include UACC-257 melanoma; SK-OV-3 ovarian; MDA-N; NCI-H522 lung; SR leukemia; PC-3 prostate; HCC-2998 colon; CAKI-1 renal; TK-10 renal; SF-268 CNS.
What all share (experiment): DTP human tumour cell line panel, 48 h

Consider `O=C1CC(=O)NC(=NNS(=O)(=O)c2ccc(Cl)cc2)N1`, for which the TGI in the experiment with UACC-257 melanoma, with SK-OV-3 ovarian, with MDA-N, with NCI-H522 lung, with SR leukemia and in the experiment on PC-3 prostate was > 100 µM each time. Moreover, the TGI with HCC-2998 colon, in the experiment with CAKI-1 renal, in the experiment on TK-10 renal and with SF-268 CNS was > 100 µM in each case.
Regarding `O=[N+]([O-])c1ccc(NNN=Nc2ccc(-c3nc4ccccc4s3)cc2)c([N+](=O)[O-])c1`, the TGI was 36 µM with UACC-257 melanoma; > 100 µM in the experiment on SK-OV-3 ovarian; 35.3 µM in the experiment on MDA-N; 70.9 µM with NCI-H522 lung; 90.1 µM with SR leukemia; 73.3 µM in the experiment on PC-3 prostate. Besides, the concentration for total growth inhibition (TGI) was 36.6 µM in the experiment on HCC-2998 colon, > 100 µM with CAKI-1 renal, > 100 µM in the experiment with TK-10 renal and > 100 µM with SF-268 CNS.
In the case of `COc1cccc(C2c3cc4c(cc3OC(Nc3ccccc3)C2C)OCO4)c1OC` (stereo not given), the TGI was 97.3 µM in the experiment with UACC-257 melanoma; > 100 µM in the experiment on SK-OV-3 ovarian; > 100 µM with MDA-N; 95 µM in the experiment with NCI-H522 lung; 11.2 µM in the experiment on SR leukemia; > 100 µM with PC-3 prostate. The TGI with HCC-2998 colon, with CAKI-1 renal, in the experiment on TK-10 renal and in the experiment on SF-268 CNS was > 100 µM in each case.
Regarding `CC1C(C#N)(C#N)C(C#N)=C(N)C1(Cl)[N+](=O)[O-]` (stereo not given), the TGI in the experiment on UACC-257 melanoma stood at 24.5 µM; in the experiment with SK-OV-3 ovarian, 32.6 µM; with MDA-N it was 21.3 µM; in the experiment with NCI-H522 lung it was 6.1 µM; in the experiment with SR leukemia, 26.5 µM; with PC-3 prostate, 32.9 µM. Moreover, the TGI in the experiment on HCC-2998 colon worked out at 31.8 µM; with CAKI-1 renal, 18.6 µM; in the experiment with TK-10 renal, 28.2 µM; in the experiment on SF-268 CNS, 28.7 µM.
Consider `Cc1cc(S(=O)(=O)/N=C(\[N-]S(=O)(=O)c2cc(Cl)sc2Cl)[n+]2ccc(N(C)C)cc2)c(S)cc1Cl`, for which the TGI with UACC-257 melanoma is > 100 µM; in the experiment with SK-OV-3 ovarian it was > 100 µM; in the experiment on MDA-N, > 100 µM; in the experiment on NCI-H522 lung it was 86.1 µM; in the experiment on SR leukemia it was 98.2 µM; in the experiment with PC-3 prostate, > 100 µM. Moreover, the TGI in the experiment with HCC-2998 colon, in the experiment with CAKI-1 renal, in the experiment on TK-10 renal and in the experiment on SF-268 CNS was > 100 µM throughout.
Consider `Cc1cnc2sn(-c3ccc(Br)cc3)c(=O)c2c1`, for which the concentration for total growth inhibition (TGI) with UACC-257 melanoma was > 100 µM; in the experiment on SK-OV-3 ovarian, > 100 µM; in the experiment on MDA-N, > 100 µM; in the experiment on NCI-H522 lung, 16.9 µM; in the experiment with SR leukemia it was > 100 µM; with PC-3 prostate it was > 100 µM. Besides, the TGI in the experiment with HCC-2998 colon is > 100 µM; in the experiment with CAKI-1 renal it was 30.7 µM; in the experiment with TK-10 renal it was > 100 µM; in the experiment with SF-268 CNS, > 100 µM.
`COC(=O)CCC(NC(=O)OC(C)(C)C)C(=O)NC(Cc1ccc(NC(=O)CCCC(C)=O)cc1)C(=O)NC(CCC(=O)OC)C(=O)OC` (stereo not given): the TGI with UACC-257 melanoma, with SK-OV-3 ovarian, in the experiment with MDA-N, with NCI-H522 lung, in the experiment on SR leukemia and with PC-3 prostate was > 100 µM in each case. Moreover, the concentration for total growth inhibition (TGI) in the experiment on HCC-2998 colon, in the experiment on CAKI-1 renal, with TK-10 renal and with SF-268 CNS was > 100 µM each time.
In the case of `CCOC(=O)NN(C(=O)OCC)c1c(C)cc(C)cc1C`, the total growth inhibition concentration (TGI) with UACC-257 melanoma, in the experiment on SK-OV-3 ovarian, in the experiment with MDA-N, with NCI-H522 lung, in the experiment on SR leukemia and in the experiment with PC-3 prostate was > 100 µM each time. The concentration for total growth inhibition (TGI) with HCC-2998 colon, in the experiment with CAKI-1 renal, with TK-10 renal and in the experiment on SF-268 CNS was > 100 µM throughout.

By TGI is commonly meant the concentration giving total growth inhibition. High values mean less potent growth arrest, low ones more potent growth arrest.

These data come from PubChem BioAssay (NCI).
